We go through four molecules from patent US20190275002A1 (priority 2018, published 2019).

SMILES strings stand for the structures. Read-outs that look alike come from different tables or passages of the source.

In experiment [1] the test system is influenza A virus (strain A/Puerto Rico/8/1934/H1N1). As to the kind of experiment: Viral load in lungs of PR8-infected mice by plaque assay on MDCK cells. Conditions: for Average viral load (pfu): substances in drinking water (experimental group also intraperitoneal injection). Type of experiment: in vivo, C57BL/6J mice.
In experiment [2] the test system is influenza A virus (strain A/Kumamoto/Y5/67 H2N2). Conditions: mouse, in vivo; cited from earlier work.
Experiment [3] has as its system influenza A virus (strain A/Hong Kong/X31/68 H3N2). The following applies: lungs of infected mice, 1-MT in drinking water; cited from earlier work.
The test system of experiment [4] is influenza A virus (strain A/Aichi/2/1968 H3N2). Conditions: 0.7 M arginine-containing solution, cited from earlier work.
The mark [5] stands for this setting: mice lungs, seventh day after intranasal inoculation with 200 pfu PR8 virus.
Where [6] appears, read: mice lungs, seventh day after virus inoculation.

In the case of `CN=C(N)NCCC[C@H](N)C(=O)O.O=C(O)CC(O)(CC(=O)O)C(=O)O` [Inhibitor group 1, L-NG-monomethyl arginine citrate], the “Average viral load (pfu)” value in experiment [1] ([…]) is given as 4.30 × 10^3 pfu. In addition, the “average viral load compared with the control group” value in experiment [1] (mouse, in vivo) is “significantly lower”. In addition, in experiment [2], the “production of NO-hemoglobin in the lungs” value was “inhibit” and the survival rate result was “effectively increasing”.
As for `N=C(NO)NCC[C@H](N)C(=O)O` [Inhibitor group 2, N^ω-hydroxy-nor-L-arginine acetate], the “Average viral load (pfu)” value in experiment [1] (setting [5]) is given as 2.47 × 10^3 pfu. In addition, the “average viral load compared with the control group” value in experiment [1] (setting [6]) is given as “significantly lower”.
`Cn1cc(C[C@H](N)C(=O)O)c2ccccc21` [Inhibitor group 3, 1-methyl-tryptophan]: the “Average viral load (pfu)” value in experiment [1] (setting [5]) is 4.37 × 10^3 pfu. For the same molecule, the “average viral load compared with the control group” value in experiment [1] (setting [6]) is “significantly lower”. Also, the “number of activated and functional CD4+ T-cells, influenza-specific CD8+ T-cells and effector memory cells” value in experiment [3] is “increased significantly”.
Turning to `N=C(N)NCCC[C@H](N)C(=O)O` [arginine], the virus inactivation effect entry in experiment [4] (pH 4.5, on ice for 30 to 60 minutes) was “most potent virus inactivation effect”; in experiment [4] (pH 5.5, on ice for 30 to 60 minutes) it was “no virus inactivation effect was detected”.
